We go through 27 compounds from patent US20080114007A1 (priority 2006, published 2008).

Structures are written as SMILES.

CSF-1R, sequence (P07333 20-972): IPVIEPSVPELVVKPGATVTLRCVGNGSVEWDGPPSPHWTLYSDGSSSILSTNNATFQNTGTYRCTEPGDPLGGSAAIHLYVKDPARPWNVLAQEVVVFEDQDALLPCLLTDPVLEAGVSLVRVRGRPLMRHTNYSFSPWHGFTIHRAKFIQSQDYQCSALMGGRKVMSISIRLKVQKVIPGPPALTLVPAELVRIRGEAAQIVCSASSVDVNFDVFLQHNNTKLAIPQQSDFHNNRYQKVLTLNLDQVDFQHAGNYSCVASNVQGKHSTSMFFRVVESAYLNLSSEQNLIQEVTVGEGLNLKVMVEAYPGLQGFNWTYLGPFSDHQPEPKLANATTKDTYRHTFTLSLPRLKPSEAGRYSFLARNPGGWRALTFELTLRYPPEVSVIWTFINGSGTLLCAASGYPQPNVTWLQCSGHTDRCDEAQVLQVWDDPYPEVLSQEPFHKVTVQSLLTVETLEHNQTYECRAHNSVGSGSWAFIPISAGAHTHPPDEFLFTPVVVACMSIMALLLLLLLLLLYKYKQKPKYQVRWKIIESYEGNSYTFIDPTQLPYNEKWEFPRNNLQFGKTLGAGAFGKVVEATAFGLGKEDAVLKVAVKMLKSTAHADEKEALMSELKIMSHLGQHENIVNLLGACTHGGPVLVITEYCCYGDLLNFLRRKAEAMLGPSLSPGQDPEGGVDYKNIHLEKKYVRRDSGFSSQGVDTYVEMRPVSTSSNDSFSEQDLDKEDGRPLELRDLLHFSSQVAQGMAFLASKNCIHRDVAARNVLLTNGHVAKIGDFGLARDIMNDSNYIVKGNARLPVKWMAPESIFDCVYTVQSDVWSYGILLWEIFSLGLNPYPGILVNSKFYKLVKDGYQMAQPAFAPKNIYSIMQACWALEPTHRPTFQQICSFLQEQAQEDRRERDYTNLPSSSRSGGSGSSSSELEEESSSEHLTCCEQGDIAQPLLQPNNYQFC

The assay has as its target CSF-1R (Homo sapiens, UniProt P07333). The experiment in a line: Peptide (non-phosphorylated) assay, fluorescence polarization competition immunoassay. Format: biochemical. As to conditions: 0.7 nM CSF-1R, 308 μM SYEGNSYTFIDPTQ peptide, 1 mM ATP, 80 min; mean of at least three determinations; read-out: c-fms Peptide IC50. In a few lines:
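Read-out is fluorescence polarization: after EDTA quench, anti-phosphotyrosine antibody plus PTK green tracer compete with the phosphorylated peptide for 30 min. The CSF-1R reaction itself ran 80 min at room temperature after ATP addition. DMSO (4%) wells served as controls, positive controls pre-treated with EDTA.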
A general note: Fluorescence polarisation rises when a labelled molecule tumbles more slowly, as on binding a larger partner.
For the compound `CONC(=O)c1cn(-c2ccc3c(c2)CCC3)c2nc(Nc3ccc(C4CCN(C(C)C)CC4)cc3)ncc2c1=O` [Cpd 111, 8-indan-5-yl-2-[4-(1-isopropyl-piperidin-4-yl)-phenylamino]-5-oxo-5,8-dihydro-pyrido[2,3-d]pyrimidine-6-carboxylic acid methoxy-amide], the IC50 is 0.58 nM.
`CONC(=O)c1cn(-c2ccc3c(c2)CCC3)c2nc(Nc3ccc(C4CCN(CC(=O)NS(C)(=O)=O)CC4)cc3)ncc2c1=O` [Cpd 87, 8-indan-5-yl-2-{4-[1-(2-methanesulfonylamino-2-oxo-ethyl)-piperidin-4-yl]-phenylamino}-5-oxo-5,8-dihydro-pyrido[2,3-d]pyrimidine-6-carboxylic acid methoxy-amide]: the IC50 turned out to be 2.4 nM.
Under `CONC(=O)c1cn(-c2ccc3c(c2)CCC3)c2nc(Nc3ccc(CCNCCO)cc3)ncc2c1=O` [Cpd 97, 2-{4-[2-(2-hydroxy-ethylamino)-ethyl]-phenylamino}-8-indan-5-yl-5-oxo-5,8-dihydro-pyrido[2,3-d]pyrimidine-6-carboxylic acid methoxy-amide] stands 0.63 nM; under `CONC(=O)c1cn(-c2ccc3c(c2)CCC3)c2nc(Nc3cccc(CCN4CCCC4)c3)ncc2c1=O` [Cpd 194, 8-indan-5-yl-5-oxo-2-[3-(2-pyrrolidin-1-yl-ethyl)-phenylamino]-5,8-dihydro-pyrido[2,3-d]pyrimidine-6-carboxylic acid methoxy-amide], 0.65 nM.
As for `CONC(=O)c1cn(-c2ccc3c(c2)CCC3)c2nc(Nc3ccc(CCN4CCC[C@@H](O)C4)cc3)ncc2c1=O` [Cpd 239, 2-{4-{2-[(3R)-(3-hydroxy-piperidin-1-yl)]-ethyl}-phenylamino}-8-indan-5-yl-5-oxo-5,8-dihydro-pyrido[2,3-d]pyrimidine-6-carboxylic acid methoxy-amide], the half-maximal inhibitory concentration (IC50) was determined as 0.32 nM.
For `CCc1ccc(-n2cc(C(=O)NOC)c(=O)c3cnc(Nc4ccc(CCN5CCN(C)C(=O)C5)cc4)nc32)cc1` [Cpd 221, 8-(4-ethyl-phenyl)-2-{4-[2-(4-methyl-3-oxo-piperazin-1-yl)-ethyl]-phenylamino}-5-oxo-5,8-dihydro-pyrido[2,3-d]pyrimidine-6-carboxylic acid methoxy-amide], the IC50 was found to be 0.87 nM.
Regarding `CONC(=O)c1cn(-c2ccc3c(c2)CCC3)c2nc(Nc3cccc(C4CCCN(C)C4)c3)ncc2c1=O` (stereo not drawn) [Cpd 271, 8-indan-5-yl-2-[3-(1-methyl-piperidin-3-yl)-phenylamino]-5-oxo-5,8-dihydro-pyrido[2,3-d]pyrimidine-6-carboxylic acid methoxy-amide], the IC50 stood at 3.2 nM.
Under `CONC(=O)c1cn(-c2ccc3c(c2)CCC3)c2nc(Nc3ccc(CCN4CC(F)C4)cc3)ncc2c1=O` [Cpd 266, 2-{4-[2-(3-fluoro-azetidin-1-yl)-ethyl]-phenylamino}-8-indan-5-yl-5-oxo-5,8-dihydro-pyrido[2,3-d]pyrimidine-6-carboxylic acid methoxy-amide] stands 0.62 nM.
On to `NC(=O)c1cn(-c2ccc3c(c2)CCC3)c2nc(Nc3ccc(C(=O)N4CCCC4)cc3)ncc2c1=O` [Cpd 122, 8-indan-5-yl-5-oxo-2-[4-(pyrrolidine-1-carbonyl)-phenylamino]-5,8-dihydro-pyrido[2,3-d]pyrimidine-6-carboxylic acid amide], for which the IC50 came out at 6.6 nM.
As to `CONC(=O)c1cn(-c2ccc3c(c2)CCC3)c2nc(Nc3ccc(CCNC4CC5CCC4C5)cc3)ncc2c1=O` (stereo not drawn) [Cpd 108, 2-{4-[2-(bicyclo[2.2.1]hept-2-ylamino)-ethyl]-phenylamino}-8-indan-5-yl-5-oxo-5,8-dihydro-pyrido[2,3-d]pyrimidine-6-carboxylic acid methoxy-amide], the half-inhibitory concentration (IC50) was 0.88 nM.
Turning to `CONC(=O)c1cn(C2CCCC2)c2nc(Nc3ccc(N4CCCC4)cc3)ncc2c1=O` [Cpd 35, 8-cyclopentyl-5-oxo-2-(4-pyrrolidin-1-yl-phenylamino)-5,8-dihydro-pyrido[2,3-d]pyrimidine-6-carboxylic acid methoxy-amide], the IC50 turned out to be 2.2 nM.
Regarding `CONC(=O)c1cn(-c2ccc3c(c2)CCC3)c2nc(Nc3ccc(CCN4CCN(C(=O)C(F)(F)F)CC4)cc3)ncc2c1=O` [Cpd 148, 8-indan-5-yl-5-oxo-2-(4-{2-[4-(2,2,2-trifluoro-acetyl)-piperazin-1-yl]-ethyl}-phenylamino)-5,8-dihydro-pyrido[2,3-d]pyrimidine-6-carboxylic acid methoxy-amide], the IC50 came to 1.2 nM.
Consider `CCc1ccc(-n2cc(C(=O)NOC3CCCC3)c(=O)c3cnc(Nc4ccc(CCN5CCN(C)CC5)cc4)nc32)cc1` [Cpd 92, 8-(4-ethyl-phenyl)-2-{4-[2-(4-methyl-piperazin-1-yl)-ethyl]-phenylamino}-5-oxo-5,8-dihydro-pyrido[2,3-d]pyrimidine-6-carboxylic acid cyclopentyloxy-amide], for which the IC50 was 4.9 nM.
Consider `CCNC(=O)c1cn(-c2ccc3c(c2)CCC3)c2nc(Nc3cccc(CCCN(C)C)c3)ncc2c1=O` [Cpd 117, 2-[3-(3-dimethylamino-propyl)-phenylamino]-8-indan-5-yl-5-oxo-5,8-dihydro-pyrido[2,3-d]pyrimidine-6-carboxylic acid ethylamide], for which the IC50 was 6.5 nM.
With `CCONC(=O)c1cn(C2CCCCC2)c2nc(Nc3ccc(CCN4CCOCC4)cc3)ncc2c1=O` [Cpd 21, 8-cyclohexyl-2-[4-(2-morpholin-4-yl-ethyl)-phenylamino]-5-oxo-5,8-dihydro-pyrido[2,3-d]pyrimidine-6-carboxylic acid ethoxy-amide], the 50% inhibitory concentration (IC50) is 1 nM.
Regarding `CONC(=O)c1cn(-c2cnc3c(c2)CCC3)c2nc(Nc3ccc(C4CCN(C)CC4)cc3)ncc2c1=O` [Cpd 225, 8-(6,7-dihydro-5H-[1]pyrindin-3-yl)-2-[4-(1-methyl-piperidin-4-yl)-phenylamino]-5-oxo-5,8-dihydro-pyrido[2,3-d]pyrimidine-6-carboxylic acid methoxy-amide], the IC50 came to 7 nM.
Take `NCCNC(=O)c1cn(C2CCCC2)c2nc(Nc3ccc(CCN4CCCC4)cc3)ncc2c1=O` [Cpd 44, 8-cyclopentyl-5-oxo-2-[4-(2-pyrrolidin-1-yl-ethyl)-phenylamino]-5,8-dihydro-pyrido[2,3-d]pyrimidine-6-carboxylic acid (2-amino-ethyl)-amide]: the concentration for half-maximal inhibition (IC50) was determined as 110 nM.
In the case of `CCc1ccc(-n2cc(C(=O)NOC)c(=O)c3cnc(Nc4cccc(C5(O)CCCN(CC)C5)c4)nc32)cc1` (stereo not drawn) [Cpd 278, 2-[3-(1-ethyl-3-hydroxy-piperidin-3-yl)-phenylamino]-8-(4-ethyl-phenyl)-5-oxo-5,8-dihydro-pyrido[2,3-d]pyrimidine-6-carboxylic acid methoxy-amide], the IC50 was 4.9 nM.
As for `CONC(=O)c1cn(-c2ccc3c(c2)CCC3)c2nc(Nc3ccc(C4CCCCN4C)cc3)ncc2c1=O` (stereo not drawn) [Cpd 243, 8-indan-5-yl-2-[4-(1-methyl-piperidin-2-yl)-phenylamino]-5-oxo-5,8-dihydro-pyrido[2,3-d]pyrimidine-6-carboxylic acid methoxy-amide], the half-maximal inhibitory concentration (IC50) came out at 0.52 nM.
Take `CC(C)ONC(=O)c1cn(C2CC2)c2nc(Nc3ccc(CCN4CCCC4)cc3)ncc2c1=O` [Cpd 143, 8-cyclopropyl-5-oxo-2-[4-(2-pyrrolidin-1-yl-ethyl)-phenylamino]-5,8-dihydro-pyrido[2,3-d]pyrimidine-6-carboxylic acid isopropoxy-amide]: the IC50 was 130 nM.
Turning to `CONC(=O)c1cn(-c2ccc(OC(F)(F)F)cc2)c2nc(Nc3ccc(C4CCN(CCO)CC4)cc3)ncc2c1=O` [Cpd 162, 2-{4-[1-(2-hydroxyethyl)-piperidin-4-yl]-phenylamino}-5-oxo-8-(4-trifluoromethoxy-phenyl)-5,8-dihydropyrido[2,3-d]pyrimidine-6-carboxylic acid methoxy-amide], the IC50 amounted to 2.1 nM.
Under `CONC(=O)c1cn(-c2ccc3c(c2)CCC3)c2nc(Nc3cccc(N4CCN(S(C)(=O)=O)CC4)c3)ncc2c1=O` [Cpd 201, 8-indan-5-yl-2-[3-(4-methanesulfonyl-piperazin-1-yl)-phenylamino]-5-oxo-5,8-dihydro-pyrido[2,3-d]pyrimidine-6-carboxylic acid methoxy-amide] stands 1.8 nM.
With `CCc1ccc(-n2cc(C(=O)NOC)c(=O)c3cnc(Nc4ccc(C5CCCCN5)cc4)nc32)cc1` (stereo not drawn) [Cpd 242, 8-(4-ethyl-phenyl)-5-oxo-2-(4-piperidin-2-yl-phenylamino)-5,8-dihydro-pyrido[2,3-d]pyrimidine-6-carboxylic acid methoxy-amide], the IC50 was 0.59 nM.
On to `COCCOc1cccc(Nc2ncc3c(=O)c(C(=O)NOC)cn(-c4ccc5c(c4)CCC5)c3n2)c1` [Cpd 261, 8-indan-5-yl-2-[3-(2-methoxy-ethoxy)-phenylamino]-5-oxo-5,8-dihydro-pyrido[2,3-d]pyrimidine-6-carboxylic acid methoxy-amide], for which the half-inhibitory concentration (IC50) stood at 0.95 nM.
On to `CCc1ccc(-n2cc(C(=O)NOC)c(=O)c3cnc(Nc4ccc(CCN5CCC5)cc4)nc32)cc1` [Cpd 260, 2-[4-(2-azetidin-1-yl-ethyl)-phenylamino]-8-(4-ethyl-phenyl)-5-oxo-5,8-dihydro-pyrido[2,3-d]pyrimidine-6-carboxylic acid methoxy-amide], for which the IC50 was 0.61 nM.
As for `CCc1ccc(-n2cc(C(=O)NOC)c(=O)c3cnc(Nc4ccc5c(c4)CCN5C(C)=O)nc32)cc1` [Cpd 279, 2-(1-acetyl-2,3-dihydro-1H-indol-5-ylamino)-8-(4-ethyl-phenyl)-5-oxo-5,8-dihydro-pyrido[2,3-d]pyrimidine-6-carboxylic acid methoxy-amide], the concentration for half-maximal inhibition (IC50) is 0.3 nM.
With `CONC(=O)c1cn(-c2ccc3c(c2)CCC3)c2nc(Nc3cccc(C(=O)NCCN4CCOCC4)c3)ncc2c1=O` [Cpd 198, 8-indan-5-yl-2-[3-(2-morpholin-4-yl-ethylcarbamoyl)-phenylamino]-5-oxo-5,8-dihydro-pyrido[2,3-d]pyrimidine-6-carboxylic acid methoxy-amide], the 50% inhibitory concentration (IC50) came to 4.2 nM.

A word on the IC50: it is the concentration needed to halve the response being measured.
